Assay results published in PubChem BioAssay (NCI).
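Following 48 hours of exposure in 96-well plates, responses at five concentrations were used to interpolate endpoints linearly. GI50: concentration for 50% inhibition of growth. The concentration for full growth arrest is given as TGI.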

How the values were obtained:
Assay in all cases: inhibition of tumour cell growth, NCI panel, 48 h
[1] = system: NCI-H522 lung
[2] = system: NCI-H226 lung
[3] = system: UACC-62 melanoma
[4] = system: A498 renal
[5] = system: SNB-19 CNS
[6] = system: NCI-H23 lung
[7] = system: CCRF-CEM leukemia
[8] = system: 786-0 renal
[9] = system: SF-295 CNS
[10] = system: MALME-3M melanoma
[11] = system: TK-10 renal
[12] = system: DU-145 prostate
[13] = system: UO-31 renal
[14] = system: OVCAR-5 ovarian
[15] = system: COLO 205 colon
[16] = system: NCI-H460 lung
[17] = system: HOP-92 NSCLC
[18] = system: HS 578T breast

Row | SMILES | TGI [1] [µM] | TGI [2] [µM] | TGI [3] [µM] | TGI [4] [µM] | TGI [5] [µM] | TGI [6] [µM] | TGI [7] [µM] | TGI [8] [µM] | TGI [9] [µM] | TGI [10] [µM] | TGI [11] [µM] | TGI [12] [µM] | TGI [13] [µM] | TGI [14] [µM] | TGI [15] [µM] | TGI [16] [µM] | TGI [17] [µM] | TGI [18] [µM] | GI50 [2] [µM] | GI50 [9] [µM]
1 | O=C(NNC(=S)NCc1ccccc1)c1csc(NC(=S)NC2CCCCC2)n1 | > 100 | 64.7 | > 100 | > 100 | > 100 | > 100 | > 100 | > 100 | > 100 | > 100 | > 100 | > 100 | 58.2 | > 100 | 49.6 | – | – | – | – | –
2 | COC(=O)C(Br)C1CCc2ccccc21 (stereo not given) | – | > 100 | > 100 | > 100 | > 100 | > 100 | > 100 | > 100 | > 100 | > 100 | > 100 | – | > 100 | > 100 | > 100 | > 100 | > 100 | – | – | –
3 | CC(C)(C)OC(=O)NCCNCCNc1ccccc1 | > 100 | > 100 | > 100 | – | > 100 | > 100 | > 100 | > 100 | > 100 | > 100 | > 100 | > 100 | > 100 | > 100 | > 100 | > 100 | > 100 | – | – | –
4 | CN(C)c1nncc2n[nH]nc12 | > 100 | > 100 | > 100 | > 100 | – | > 100 | > 100 | > 100 | > 100 | > 100 | > 100 | – | > 100 | > 100 | > 100 | – | > 100 | – | – | –
5 | C=CCN1/C(=C2\SC(=S)N(c3ccc(C)cc3)C2=O)Sc2c1nc[nH]c2=O | > 100 | > 100 | > 100 | > 100 | > 100 | > 100 | > 100 | > 100 | > 100 | > 100 | > 100 | – | > 100 | > 100 | > 100 | > 100 | > 100 | – | – | –
6 | CCCCCCCCCC(=O)OCC1OC(n2cc(F)c(=O)[nH]c2=O)C(NC(=O)OCc2ccccc2)C(OC(=O)CCCCCCCCC)C1O (stereo not given) | 72.2 | – | > 100 | > 100 | > 100 | 62 | > 100 | 36.1 | > 100 | 90.6 | > 100 | – | > 100 | – | > 100 | – | 36.3 | – | – | –
7 | O=C1c2ccccc2C(=O)C1C(c1ccc(F)cc1)C1C(=O)c2ccccc2C1=O | > 100 | > 100 | > 100 | – | > 100 | > 100 | > 100 | > 100 | > 100 | > 100 | > 100 | – | > 100 | > 100 | > 100 | > 100 | > 100 | – | – | –
8 | CCN(CC)C(=S)SC(C(=O)Nc1nnc(-c2ccccc2)o1)c1ccccc1 (stereo not given) | 49.2 | 74.7 | – | 40.7 | > 100 | 34.2 | – | 61.1 | > 100 | 62 | > 100 | 57.8 | 23.9 | 56.1 | 84.4 | 31.6 | – | > 100 | – | –
9 | CCNC12CCC(C1)C(C)(C)C2=O (stereo not given) | – | > 100 | > 100 | > 100 | > 100 | > 100 | > 100 | > 100 | > 100 | – | > 100 | > 100 | > 100 | > 100 | > 100 | > 100 | > 100 | – | – | –
10 | C/C=C1\CN2CCc3c([nH]c4ccccc34)C2C=C1CCO (stereo not given) | > 340 | > 340 | > 340 | – | > 340 | > 340 | > 340 | > 340 | > 340 | > 340 | > 340 | – | – | > 340 | > 340 | > 340 | > 340 | – | – | –
11 | O=c1cc(-c2ccco2)[nH]c2cc3c(cc12)OCO3 | – | > 100 | > 100 | > 100 | > 100 | > 100 | > 100 | > 100 | > 100 | > 100 | > 100 | – | > 100 | – | 78.5 | > 100 | – | – | 24.4 | 28.1
12 | ONC1=Nc2ccccc2C(=S)N2CSCC12 (stereo not given) | > 100 | > 100 | > 100 | > 100 | > 100 | – | > 100 | > 100 | > 100 | > 100 | > 100 | > 100 | > 100 | > 100 | > 100 | 42.3 | – | > 100 | – | –
13 | O=S(=O)(SC1=NCCN1)c1cccc2ccccc12 | 36.2 | 73 | > 100 | 89.7 | 83.7 | 91.2 | > 100 | 74.9 | 51.2 | > 100 | – | > 100 | > 100 | 93.5 | 34.4 | 84.3 | > 100 | – | – | –
14 | CC(=O)O[C@@]12CO[C@@H]1C[C@@H](O)[C@@]1(C)C(=O)[C@H](O)C3=C(C)[C@@H](OC(=O)[C@H](O)[C@@H](NC(=O)c4ccccc4)c4ccccc4)C[C@@](O)([C@@H](OC(=O)c4ccccc4)C12)C3(C)C (stereo not given in full) | – | 81.9 | – | > 100 | > 100 | – | > 67.5 | > 100 | 8.52 | – | > 72.5 | > 100 | > 78.8 | – | 0.176 | 25.1 | – | – | – | –
15 | Cc1[nH]c(=O)[nH]c1C(=O)c1ccc(-n2ccnc2)cc1 | > 100 | > 100 | > 100 | > 100 | > 100 | – | – | > 100 | > 100 | > 100 | – | – | > 100 | > 100 | – | > 100 | – | – | – | –
16 | CCCCNC(=O)C1C2CCC(O2)C1C(=O)O (stereo not given) | 41.8 | 35.3 | 43.4 | 32.4 | 58.7 | > 100 | – | 31.5 | 74.7 | 43.7 | 42.5 | – | > 100 | > 100 | 32.5 | > 100 | 39 | – | – | –
17 | COc1nc2c(c(=O)n1C)N=C(c1ccccc1)[C@H](C(CC(=O)c1ccccc1)c1ccccc1)C(c1ccccc1)N2 (stereo not given in full) | > 100 | > 100 | > 100 | > 100 | > 100 | > 100 | > 100 | > 100 | > 100 | – | – | > 100 | > 100 | > 100 | > 100 | – | > 100 | – | – | –
18 | CCOC(OCC)N1C(=O)C2(C(OCC)OCC)CC3C(OC(=O)N3N)c3cccc1c32 (stereo not given) | – | > 100 | > 100 | > 100 | > 100 | > 100 | > 100 | > 100 | > 100 | > 100 | > 100 | > 100 | > 100 | > 100 | > 100 | > 100 | – | – | – | –
19 | COc1ccc(NC(=O)C(C)Oc2ccc(OCC3CCCCC3)cc2)cc1 (stereo not given) | > 100 | > 100 | > 100 | > 100 | > 100 | 68.3 | > 100 | > 100 | – | > 100 | > 100 | – | > 100 | – | – | > 100 | – | – | – | –
20 | Nc1ccc(C23CC4CC(C2)CC(c2ccc(N)cc2)(C4)C3)cc1 | – | 44.9 | > 100 | 47.4 | > 100 | > 100 | 29.7 | > 100 | – | – | > 100 | > 100 | > 100 | 61.4 | 52.5 | > 100 | > 100 | – | – | –
21 | C=C1C(=O)OC2C3C(=C)[C@@H](OC(C)=O)CC3C(C)=CC(OC(=O)C(C)(OC(C)=O)C(C)OC(C)=O)[C@@H]12 (stereo not given in full) | 11.4 | 51.8 | 27.2 | – | > 100 | 38.3 | 12.3 | 33.5 | > 100 | 26.5 | 27.9 | 30.5 | 30.8 | 42.6 | 28.2 | 60.4 | – | > 100 | – | –
22 | C#CCN(N=O)C(=O)NCCCCC(NC(C)=O)C(=O)NCc1ccccc1 (stereo not given) | > 100 | > 100 | > 100 | > 100 | > 100 | > 100 | > 100 | > 100 | > 100 | > 100 | > 100 | – | > 100 | > 100 | > 100 | > 100 | > 100 | – | – | –
23 | COC(=O)C(C(=O)C(=O)Nc1cccc([N+](=O)[O-])c1)c1nc2ccc([N+](=O)[O-])cc2[nH]c1=O (stereo not given) | > 100 | > 100 | > 100 | > 100 | > 100 | > 100 | > 100 | > 100 | > 100 | > 100 | > 100 | – | > 100 | > 100 | > 100 | > 100 | – | – | – | –
24 | C=C(C(=C)N1N=NC2C3CCC(C3)C21)N1N=NC2C3CCC(C3)C21 (stereo not given) | > 100 | – | > 100 | – | > 100 | > 100 | > 100 | > 100 | > 100 | > 100 | > 100 | – | > 100 | > 100 | > 100 | > 100 | > 100 | – | – | –
25 | CC(=O)n1cc(OP(=O)(Oc2ccccc2)Oc2ccccc2)c2ccccc21 | – | > 100 | 42.6 | > 100 | > 100 | > 100 | 50.4 | > 100 | 57.3 | > 100 | > 100 | > 100 | > 100 | – | 27.2 | 50.8 | – | > 100 | – | –
26 | O/N=C1/CC2(N3CCOCC3)C3CC/C(=N\O)C2CC1(Cc1ccccc1)C3 (stereo not given) | > 100 | > 100 | > 100 | > 100 | > 100 | > 100 | > 100 | > 100 | > 100 | > 100 | – | > 100 | > 100 | > 100 | > 100 | > 100 | – | – | – | –
27 | CCOC(=O)c1cc(Br)c(-c2cc(C)no2)[nH]1 | 78.9 | > 100 | > 100 | 75.6 | > 100 | > 100 | – | > 100 | > 100 | 61.3 | > 100 | 73.8 | > 100 | > 100 | 34.8 | 55 | > 100 | – | – | –
28 | C=C1C(OC(=O)/C=C/c2ccccc2)CC(OC(C)=O)C2(C)C1CC1CC(OC(C)=O)C(C)=C(C(OC(C)=O)C2OC(C)=O)C1(C)C (stereo not given) | > 100 | > 100 | > 100 | > 100 | > 100 | – | > 100 | > 100 | > 100 | > 100 | > 100 | – | > 100 | > 100 | > 100 | > 100 | > 100 | – | – | –
29 | CN(C(=O)C1=CCC2(CC1)OCCO2)c1ccccc1I | > 100 | > 100 | > 100 | > 100 | > 100 | > 100 | > 100 | > 100 | > 100 | – | > 100 | > 100 | > 100 | > 100 | > 100 | > 100 | > 100 | – | – | –
30 | CN(C)c1snc2c1c(=O)n(C)c(=O)n2C | > 100 | > 100 | > 100 | > 100 | > 100 | > 100 | > 100 | > 100 | > 100 | > 100 | > 100 | – | > 100 | > 100 | > 100 | > 100 | – | – | – | –
